Experimental data taken from US5466784A, “Monoclonal antibodies to salinomycin and method for detecting the same” (The United States of America as represented by the …, priority 1993, dated 1995).

Columns and labels:
[1] = system: the 16 anti-salinomycin monoclonal antibodies SAL02-SAL13 and SAL22-SAL25; assay: Competitive inhibition ELISA, result stated for the antibodies as a group; format: binding, mouse
Experimental: (§1) The supernatant culture fluid from the cloned hybridomas may also be screened to select for those producing antibodies having a high affinity for salinomycin. Affinity my be measured using a variety of well known techniques, such as ELISA, RIA or equilibrium dialysis using labelled salinomycin. […] In accordance with this embodiment, the antibody containing supernatant is added to a salinomycin coated solid substrate such as the wells of an assay plate, together with a range of concentrations of free salinomycin as a competitor. Following incubation and washing, bound antibody in the wells is determined in the same manner as the db-ELISA. Percent inhibition may be calculated as (1-B/BO)×100 where B is the OD of a well with a competitor and BO is the mean OD of the wells without competitor (control). […] However, for even greater accuracy, the affinity may be alternatively measured at 50% inhibition (IC50).
(§2) For the competitive inhibition ELISA, the wells of a 96-well microtiter plate were coated with 250 ng SAL-BSA and blocked with ovalbumin as previously described. Two hundred μL of a competitor (free salinomycin at 20-100 ng/100 μL) in assay buffer, were added to row 2 of an antigen-coated well. The remaining wells in that row received 100 μL of assay buffer. A 100 μL aliquot of competitor was withdrawn from row 2 and serially diluted across the microtiter plate into wells 3-10. Wells 11 and 12 received no competitor. […] Plates were incubated for 1-h at 37° C. and processed as described above in the db ELISA. Percent inhibition was calculated by the following method: (1-B/B0)×100where B=the OD of a well with a competitor and B0 =mean ODs of the wells without competitor (i.e. wells 11 and 12).
(§3) Antibody Characterization. The 16 monoclonal antibodies were further evaluated for their ability to distinguish between commonly used ionophoric coccidiostats. The competitive inhibition ELISA described supra was repeated with the ionophores salinomycin (SAL), narasin (NAR), lasalocid (LAS) and monensin (MON) as competitors.

[2] = system: anti-salinomycin monoclonal antibody SAL02 (IgG2a, kappa; hybridoma ATCC HB 11954); assay: Competitive inhibition ELISA (SAL-BSA coated wells); format: binding, mouse; details: mean ± SD, n = 10 assays
Experimental: as §1, §2, §3

[3] = system: anti-salinomycin monoclonal antibody SAL03 (IgG2a, kappa); assay: as above; format: binding, mouse; details: mean ± SD, n = 10 assays
Experimental: as §1, §2, §3

[4] = system: anti-salinomycin monoclonal antibody SAL04 (IgG2a, kappa); assay: as above; format: binding, mouse; details: mean ± SD, n = 10 assays
Experimental: as §1, §2, §3

[5] = system: anti-salinomycin monoclonal antibody SAL05 (IgG2a, kappa); assay: as above; format: binding, mouse; details: for Mean 50% Inhibition Value (IC50) of competitor: mean ± SD, n = 10 assays
Experimental: as §1, §2, §3

[6] = system: anti-salinomycin monoclonal antibody SAL06 (IgG2a, kappa); assay: as above; format: binding, mouse; details: mean ± SD, n = 10 assays
Experimental: as §1, §2, §3

[7] = system: anti-salinomycin monoclonal antibody SAL07 (IgG2a, kappa); assay: as above; format: binding, mouse; details: mean ± SD, n = 10 assays
Experimental: as §1, §2, §3

[8] = system: anti-salinomycin monoclonal antibody SAL08 (IgG2a, kappa); assay: as above; format: binding, mouse; details: mean ± SD, n = 10 assays
Experimental: as §1, §2, §3

[9] = system: anti-salinomycin monoclonal antibody SAL09 (IgG2a, kappa); assay: as above; format: binding, mouse; details: mean ± SD, n = 10 assays
Experimental: as §1, §2, §3

[10] = system: anti-salinomycin monoclonal antibody SAL10 (IgG2a, kappa); assay: as above; format: binding, mouse; details: for Mean 50% Inhibition Value (IC50) of competitor: mean ± SD, n = 10 assays
Experimental: as §1, §2, §3

[11] = system: anti-salinomycin monoclonal antibody SAL11 (IgG2a, kappa); assay: as above; format: binding, mouse; details: mean ± SD, n = 10 assays
Experimental: as §1, §2, §3

[12] = system: anti-salinomycin monoclonal antibody SAL12 (IgG2a, kappa); assay: as above; format: binding, mouse; details: mean ± SD, n = 10 assays
Experimental: as §1, §2, §3

[13] = system: anti-salinomycin monoclonal antibody SAL13 (IgG2a, kappa); assay: as above; format: binding, mouse; details: mean ± SD, n = 10 assays
Experimental: as §1, §2, §3

[14] = system: anti-salinomycin monoclonal antibody SAL22 (IgG2a, kappa); assay: as above; format: binding, mouse; details: mean ± SD, n = 10 assays
Experimental: as §1, §2, §3

[15] = system: anti-salinomycin monoclonal antibody SAL23 (IgG2a, kappa); assay: as above; format: binding, mouse; details: mean ± SD, n = 10 assays
Experimental: as §1, §2, §3

[16] = system: anti-salinomycin monoclonal antibody SAL24 (IgG2a, kappa); assay: as above; format: binding, mouse; details: mean ± SD, n = 10 assays
Experimental: as §1, §2, §3

[17] = system: anti-salinomycin monoclonal antibody SAL25 (IgG2a, kappa); assay: as above; format: binding, mouse; details: mean ± SD, n = 10 assays
Experimental: as §1, §2, §3

[18] = system: monoclonal antibodies to salinomycin of Miller et al. (immunogen linked through succinate at C-20); details: prior art antibodies; cited from earlier work
[19] = at or below 100 ng/well (10 ppm), Table I footnote
[20] = at or below 1000 ng/well, all 16 antibodies

Row | Compound | inhibition of antigen-antibody binding by competitor [1, 19] | inhibition of antigen-antibody binding by competitor [1, 20] | Mean 50% Inhibition Value (IC50) of competitor [2] | Mean 50% Inhibition Value (IC50) of competitor [3] | Mean 50% Inhibition Value (IC50) of competitor [4] | Mean 50% Inhibition Value (IC50) of competitor [5] | Mean 50% Inhibition Value (IC50) of competitor [6] | Mean 50% Inhibition Value (IC50) of competitor [7] | Mean 50% Inhibition Value (IC50) of competitor [8] | Mean 50% Inhibition Value (IC50) of competitor [9] | Mean 50% Inhibition Value (IC50) of competitor [10] | Mean 50% Inhibition Value (IC50) of competitor [11] | Mean 50% Inhibition Value (IC50) of competitor [12] | Mean 50% Inhibition Value (IC50) of competitor [13] | Mean 50% Inhibition Value (IC50) of competitor [14] | Mean 50% Inhibition Value (IC50) of competitor [15] | Mean 50% Inhibition Value (IC50) of competitor [16] | Mean 50% Inhibition Value (IC50) of competitor [17] | other results
1 | CC[C@@H](C(=O)[C@@H](C)[C@@H](O)[C@H](C)CCc1ccc(C)c(O)c1C(=O)O)[C@H]1O[C@](CC)([C@H]2CC[C@](O)(CC)[C@H](C)O2)C[C@@H]1C [lasalocid] | Neither Lasalocid or Monensin inhibited the antigenantibody binding | no inhibition of antigen-antibody binding |  |  |  |  |  |  |  |  |  |  |  |  |  |  |  |  | 
2 | CC[C@@]1([C@@H]2O[C@@H]([C@H]3O[C@@](O)(CO)[C@H](C)C[C@@H]3C)C[C@@H]2C)CC[C@H]([C@]2(C)CC[C@]3(C[C@H](O)[C@@H](C)[C@@H]([C@@H](C)[C@@H](OC)[C@H](C)C(=O)O)O3)O2)O1 [monensin] | Neither Lasalocid or Monensin inhibited the antigenantibody binding | no inhibition of antigen-antibody binding |  |  |  |  |  |  |  |  |  |  |  |  |  |  |  |  | 
3 | CC[C@@H](C(=O)O)[C@@H]1O[C@@H]([C@@H](C)[C@H](O)[C@H](C)C(=O)[C@H](CC)[C@H]2O[C@]3(C=C[C@@H](O)[C@]4(CC[C@@](C)([C@H]5CC[C@](O)(CC)[C@H](C)O5)O4)O3)[C@H](C)C[C@@H]2C)[C@@H](C)C[C@@H]1C [narasin] |  |  | 0.97 ± 0.97 ng/well | 0.82 ± 0.58 ng/well | 0.34 ± 0.15 ng/well | 0.52 ± 0.62 ng/well | 0.39 ± 0.15 ng/well | 0.93 ± 0.85 ng/well | 1.09 ± 0.15 ng/well | 1.17 ± 0.27 ng/well | 1.18 ± 0.49 ng/well | 0.69 ± 0.28 ng/well | 0.67 ± 0.19 ng/well | 0.55 ± 0.20 ng/well | 0.51 ± 0.09 ng/well | 0.99 ± 0.25 ng/well | 0.98 ± 0.46 ng/well | 0.68 ± 0.34 ng/well | 
4 | CC[C@@H](C(=O)[C@@H](C)[C@@H](O)[C@H](C)[C@@H]1O[C@@H]([C@@H](CC)C(=O)O)CC[C@@H]1C)[C@H]1O[C@]2(C=C[C@@H](O)[C@]3(CC[C@@](C)([C@H]4CC[C@](O)(CC)[C@H](C)O4)O3)O2)[C@H](C)C[C@@H]1C [salinomycin] |  |  | 0.62 ± 0.11 ng/well | 0.78 ± 0.72 ng/well | 0.35 ± 0.17 ng/well | 0.33 ± 0.10 ng/well | 0.78 ± 0.62 ng/well | 1.44 ± 1.28 ng/well | 0.60 ± 0.30 ng/well | 0.97 ± 0.28 ng/well | 1.76 ± 0.29 ng/well | 0.57 ± 0.25 ng/well | 0.49 ± 0.28 ng/well | 0.75 ± 0.49 ng/well | 0.56 ± 0.23 ng/well | 0.92 ± 0.15 ng/well | 1.15 ± 0.45 ng/well | 0.61 ± 0.18 ng/well | concentration that resulted in 20% inhibition (IC20) of control activity ([5]; free salinomycin as competitor): 0.174 ng; concentration that resulted in 50% inhibition IC50 ([5]; free salinomycin as competitor): 0.33 ng; concentration that resulted in 20% inhibition (IC20) of control activity ([10]; free salinomycin as competitor): 0.793 ng; concentration that resulted in 50% inhibition IC50 ([10]; free salinomycin as competitor): 1.76 ng; detection limit (reported) [18]: 50 ng; sensitivity (reported) [18]: 50 ng per well
